The numbers were not newly measured in US20050255049A1, “Formoterol and mometasone aerosol formulations” (priority 2002, published 2005), which cites them from elsewhere.

For this data set the following is noted: stated in the background.

As for `C[C@@H]1C[C@H]2[C@@H]3CCC4=CC(=O)C=C[C@]4(C)[C@@]3(Cl)[C@@H](O)C[C@]2(C)[C@@]1(OC(=O)c1ccco1)C(=O)CCl` [mometasone furoate, (11 beta, 16alpha)-9,21-dichloro-17-[(2-furanylcarbonyl)oxy]-11-hydroxy-16-methylpregna-1,4-diene-3,20-dione], the density is listed as 1.4 g cm^−3.
